Reference: patent US5679671A, “Amino acid derivative” (Eisai Co., Ltd., priority 1993, dated 1997)

Columns and labels:
Format in all cases: biochemical
[1] = molecular target: T1, NEP (Rattus norvegicus, UniProt P07861); test: NEP inhibition activity (Experiment F-1); set-up: membrane fraction prepared from rat renal cortex; from tissue; host or cells: rat renal cortex, membrane fraction (method of Booth and Kenny); conditions: rat renal cortex membrane fraction
T1 sequence (P07861 1-750): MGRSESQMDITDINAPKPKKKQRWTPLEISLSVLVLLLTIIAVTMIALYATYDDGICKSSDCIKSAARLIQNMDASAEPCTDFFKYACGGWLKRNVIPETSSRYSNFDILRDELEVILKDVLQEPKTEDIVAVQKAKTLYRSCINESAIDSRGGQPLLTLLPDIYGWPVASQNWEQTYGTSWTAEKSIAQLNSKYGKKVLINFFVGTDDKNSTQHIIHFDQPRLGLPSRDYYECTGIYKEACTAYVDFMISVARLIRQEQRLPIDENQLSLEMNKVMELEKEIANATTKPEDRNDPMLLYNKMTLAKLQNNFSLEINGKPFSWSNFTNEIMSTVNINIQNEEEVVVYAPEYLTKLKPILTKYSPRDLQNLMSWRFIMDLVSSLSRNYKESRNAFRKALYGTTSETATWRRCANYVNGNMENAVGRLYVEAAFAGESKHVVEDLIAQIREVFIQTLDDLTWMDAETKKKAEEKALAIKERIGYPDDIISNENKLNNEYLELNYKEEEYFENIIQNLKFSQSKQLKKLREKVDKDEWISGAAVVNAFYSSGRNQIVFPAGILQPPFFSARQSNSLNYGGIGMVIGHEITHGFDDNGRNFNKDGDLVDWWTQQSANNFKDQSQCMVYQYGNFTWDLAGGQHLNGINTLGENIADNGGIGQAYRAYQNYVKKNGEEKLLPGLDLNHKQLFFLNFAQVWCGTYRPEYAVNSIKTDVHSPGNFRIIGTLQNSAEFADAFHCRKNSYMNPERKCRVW
Protocol: As a source of the enzyme NEP, a membrane fraction prepared from rat renal cortex in accordance with the method of Booth and Kenny (A Rapid Method for the Purification of Microvilli from Rabbit Kidney., Andrew G. Booth and A. John Kenny, Biochem. j., 1974, 142, 575-581.) was employed. The NEP activity was determined in accordance with the method of Orlowsky and Wilk (Purification and Specificity of a Membrane-Bound Metalloendpeptidase from Bovine Pituitaries., Marian Orlowsky and Shrwin Wilk, Biochemistry, 1981, 20, 4942-4950.). Now the procedure will be briefly described.
(§1) As a substrate, benzoyl-glycyl-arginyl-arginyl-2-naphthylamide (benzoyl-Gly-Arg-Arg-2-naphthylamide (Nova Biochem, Switzerland)) was used. In the presence of an NEP enzyme preparation and excessive leucine aminopeptidase (sigma chemical Co., U.S.A.), the liberated naphthylamine was made to undergo color development with first garnet (Sigma chemical Co., U.S.A.), followed by the measurement of the absorbance at a wavelength of 540 nm.
(§2) With respect to the NEP inhibition activity and the ACE inhibition activity, the inhibitor was added to the assay systems of both enzyme activities as described above in such a manner as to give the final concentrations of 1, 3, 10, 30, 100, 300 and 1000 inhibition curves were prepared, and then the concentration at which 50% inhibition was achieved was taken as IC50.

[2] = molecular target: T2, ACE (Rattus norvegicus, UniProt P47820); test: ACE inhibition activity (Experiment F-1); conditions: rat lung membrane fraction, pH 8.3
T2 construct: membrane fraction prepared from rat lung; from tissue; host or cells: rat lung, membrane fraction (method of Wu-Wong et al.)
T2 sequence (P47820 36-1313): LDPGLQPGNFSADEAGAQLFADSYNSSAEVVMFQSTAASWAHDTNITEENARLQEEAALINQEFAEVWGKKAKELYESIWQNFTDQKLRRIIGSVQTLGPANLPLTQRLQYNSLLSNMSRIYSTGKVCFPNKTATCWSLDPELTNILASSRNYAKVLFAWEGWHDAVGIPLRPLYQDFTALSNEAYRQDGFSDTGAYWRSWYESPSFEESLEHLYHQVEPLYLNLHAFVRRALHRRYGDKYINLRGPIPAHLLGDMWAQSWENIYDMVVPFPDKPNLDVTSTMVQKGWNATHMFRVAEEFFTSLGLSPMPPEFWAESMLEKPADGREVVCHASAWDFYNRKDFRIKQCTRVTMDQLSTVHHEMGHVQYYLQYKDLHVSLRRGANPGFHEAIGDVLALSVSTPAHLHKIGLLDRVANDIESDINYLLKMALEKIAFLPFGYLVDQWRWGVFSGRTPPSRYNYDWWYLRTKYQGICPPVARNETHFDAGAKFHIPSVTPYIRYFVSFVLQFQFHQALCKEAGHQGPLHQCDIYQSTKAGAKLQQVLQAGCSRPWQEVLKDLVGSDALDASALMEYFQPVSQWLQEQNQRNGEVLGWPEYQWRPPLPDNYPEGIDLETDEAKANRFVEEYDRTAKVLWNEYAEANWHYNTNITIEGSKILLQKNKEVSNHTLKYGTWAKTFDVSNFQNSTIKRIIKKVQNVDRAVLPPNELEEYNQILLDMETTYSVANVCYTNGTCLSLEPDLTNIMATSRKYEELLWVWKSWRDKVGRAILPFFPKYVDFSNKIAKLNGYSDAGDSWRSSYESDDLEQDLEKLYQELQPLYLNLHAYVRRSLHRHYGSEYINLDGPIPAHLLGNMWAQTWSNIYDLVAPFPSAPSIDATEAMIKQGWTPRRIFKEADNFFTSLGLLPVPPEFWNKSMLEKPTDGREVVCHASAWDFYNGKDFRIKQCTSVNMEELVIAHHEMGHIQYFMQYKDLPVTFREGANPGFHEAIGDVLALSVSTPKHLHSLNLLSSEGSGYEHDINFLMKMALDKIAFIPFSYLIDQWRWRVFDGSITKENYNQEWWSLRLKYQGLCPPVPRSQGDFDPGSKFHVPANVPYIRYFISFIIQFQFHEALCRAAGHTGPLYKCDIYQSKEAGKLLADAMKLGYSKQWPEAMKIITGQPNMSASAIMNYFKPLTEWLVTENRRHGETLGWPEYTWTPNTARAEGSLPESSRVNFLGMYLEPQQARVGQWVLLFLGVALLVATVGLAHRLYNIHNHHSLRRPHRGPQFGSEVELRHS
Protocol: As a source of the enzyme ACE, a membrane fraction prepared from rat lung in accordance with the method of Wu-Wong et al. (Characterization of Endthelin Converting Enzyme in Rat Lung., Jinshyum R. Wu-Wong, Gerald P. Budzik, Edward M, Devine and Terry J. Opgenorth, Biochem. Biophys. Res. Commun., 1990, 171, 1291-1296.) was used. The ACE activity was determined with the use of a modification (modified to a borate buffer pH 8.3) of the method of Cushman and Cheung (Spectrophotometric Assay and Properties of the Angiotensin-Converting Enzyme of Rabbit Lung., Cushman D. W. and Cheung H. S., 1971, 20, 1637-1648.). Now the procedure will be briefly described.
In the presence of ACE, the hippurate liberated from hippuryl-histidyl-leucine (Hippuryl-His-Leu (Peptide Institute Inc., Japan)) was extracted with ethyl acetate and then the absorbance was measured at a wavelength of 228 nm.
as §2

[3] = molecular target: T2, ACE; test: ACE inhibition activity using rat lung (Experiment C-2); conditions: Table C-1; rat lung membrane fraction, borate buffer pH 8.3
Protocol: The ACE inhibition activity was determined by using a membrane fraction prepared from rat lung in accordance with the method of Wu-Wong et al. (Characterization of Endthelin Converting Enzyme in Rat Lung., Junshyum R. Wu-Wong, Gerald P. Budzik, Edward M. Devine and Terry J. Opgenorth, Biochem. Biophys. Res. Commun., 1990, 171, 1291-1296.).
The ACE activity was determined with the use of a modification (modified to a borate buffer, pH 8.3) of the method of Cushman and Cheung (Spectrophotometric Assay and Properties of the Angiotensin-Converting Enzyme of Rabbit Lung., Cushman D. W. and Cheung H. S., 1971, 20, 1637-1648.).
In the presence of ACE, the hippurate liberated from hippuryl-histidyl-leucine (Hippuryl-His-Leu (PeptideInstitute Inc., Japan)) was extracted with ethyl acetate and then the absorbance was measured at a wavelength of 228 nm.
(§3) With respect to the ACE inhibition activity, the test compound was added to the reaction system as described above in such a manner as to give the final concentrations of 1, 3, 10, 30, 100, 300 and 1000 nM, an inhibition curve was prepared, and then the concentration at which 50% inhibition was achieved was taken as IC50. As a comparative compound, [4S-[4α,7α(R*),12bβ]]-7-[(1-oxo-2-(S)-thio-3-phenyl-propyl)amino]-1,2,3,4,6,7,8,12b-octahydro-6-oxopyrido-[2,1-a][2]benzazepine-4-carboxylic acid was used.

[4] = molecular target: T1, NEP; test: NEP inhibition activity (Experiment C-1); conditions: Table C-1
Protocol: The NEP activity was determined by the following manner in accordance with the method of Orlowsky and Wilk (Purification and Specificity of a Membrane-Bound Metalloendpeptidase from Bovine Pituitaries., Marian Orlowsky and Shrwin Wilk, Biochemistry, 1981, 20, 4942-4950.).
as §1
as §3, with “NEP” for “ACE”, “experimental” for “reaction”

IC50 [1]	IC50 [2]	IC50 [3]	IC50 [4]	SMILES
17.1 nM	48 nM	–	–	O=C(O)CNC(=O)[C@@H](CS)Cc1ccc2c(c1)OCO2 [Comp cpd. F-1, N[1oxo-2(S)-mercaptomethyl-3-(3,4-methylenedioxy-phenyl)propyl]glycine, reference compound]
–	–	12.5 nM	15.1 nM	CC[C@H](C)[C@H](S)C(=O)N[C@H]1CSc2ccccc2N(CC(=O)O)C1=O [Example C-12, (R)-3-[[(2S,3S)-3-Methyl-1-oxo-2-thiopentyl]amino]-5-carboxymethyl-2,3-dihydro-1,5-benzothiazepin-4(5H)-one]
22.5 nM	7.7 nM	–	–	O=C(N[C@H]1CCC[C@H]2SC[C@@H](C(=O)O)N2C1=O)[C@@H](S)Cc1ccc(F)cc1 [Example F-14, [3R-[3α,6α(S*),9aβ]]-6[[(S)-1-Oxo-2-thio-3-(4-fluorophenyl)propyl]amino]-octahydro-5-oxothiazol [3,2-a]azepine-3-carboxylic acid]
5.6 nM	7 nM	–	–	O=C(N[C@H]1CCC[C@H]2SC[C@@H](C(=O)O)N2C1=O)[C@@H](CS)Cc1ccccc1 [Example F-18, [3R-[3α,6α(S*),9aβ]]-6-[[(S)-1-Oxo-2-thiomethyl-3-phenylpropyl]amino]-octahydro-5-oxothiazol[3,2-a]-azepine-3-carboxylic acid]
104 nM	13.5 nM	–	–	COc1ccc(C[C@H](S)C(=O)N[C@H]2CCC[C@H]3SC[C@@H](C(=O)O)N3C2=O)cc1 [Example F-19, [3R-[3α,6α(S*),9aβ]]-6-[[(S)-1-Oxo-2-thio-3-(4-methoxyphenyl)propyl]amino]-octahydro-5-oxothiazol-[3,2-a]azepine-3-carboxylic acid]
56.5 nM	16 nM	–	–	O=C(N[C@H]1CCC[C@H]2SC[C@@H](C(=O)O)N2C1=O)[C@@H](S)Cc1ccc(-c2ccccc2)cc1 [Example F-20, [3R-[3α,6α(S*),9aβ]]-6-[[(S)-1-Oxo-2-thio-3-(1,4-biphenyl)propyl]amino]-octahydro-5-oxothiazol[3,2-a]azepine3-carboxylic acid]
9 nM	13 nM	–	–	O=C(N[C@H]1CCC[C@H]2SC[C@@H](C(=O)O)N2C1=O)[C@@H](S)Cc1cccs1 [Example F-22, [3R-[3α,6α(S*),9aβ]]-6-[[(S)-1-Oxo-2-thio-3-(2-thienyl)propyl]amino]-octahydro-5-oxothiazol-[3,2-a]azepine-3-carboxylic acid]
120 nM	8 nM	–	–	CC[C@@H](C)[C@H](S)C(=O)N[C@H]1CCC[C@H]2SC[C@@H](C(=O)O)N2C1=O [Example F-23, [3R-[3α,6α(S*),9aβ]]-6-[[(S, 3R)-1-Oxo-2-thio-3-methylpentylamino]-octahydro-5-oxothiazol-[3,2-a]azepine-3-carboxylic acid]
8 nM	13 nM	–	–	CC[C@H](S)C(=O)N[C@H]1CCC[C@H]2SC[C@@H](C(=O)O)N2C1=O [Example F-24, [3R-[3α,6α(S*),9aβ]]-6-[(S)-1-Oxo-2-thiobutylamino]-octahydro-5-oxothiazol[3,2-a]azepine-3-carboxylic acid]
265 nM	9 nM	–	–	CC(C)[C@H](S)C(=O)N[C@H]1CCC[C@H]2SC[C@@H](C(=O)O)N2C1=O [Example F-25, [3R-[3α,6α(S*),9aβ]]-6-[(S)-1-Oxo-2-thio-3-methylbutylamino]-octahydro-5-oxothiazol[3,2-a]azepine-3-carboxylic acid]
